Laboratory results taken from patent publication US20260184750A1, “CONJUGATE COMPRISING PEPTIDE OF NOVEL SEQUENCE AND GLYCYRRHIZIN, AND PHARMACEUTICAL COMPOSITION FOR PREVENTING OR TREATING OBESITY COMPRISING SAME” (IUCF-HYU (INDUSTRY-UNIVERSITY COOPERATION FOUNDATION …, priority 2022, published 2026).
Where two headings read alike, the source gives them in different places. No end group written: not given here.

How the values were obtained:
[1] = Pharmacokinetics: blood residual concentration after intraperitoneal injection; format: in vivo, C57BL/6J; conditions: 13.5 mg/kg intraperitoneal
Protocol: The pharmacokinetic indices were calculated by measuring the blood residual concentrations of GL derivatives. Specifically, GL and GL-PEG-AHP were injected intraperitoneally in an amount of 13.5 mg/kg into animals (C57BL/6J, 6 weeks old, 5 per cage). At each time point (0, 20, 30, 120, 240, and 480 minutes) following the intraperitoneal injection, the animals were sacrificed, and 300 μl of blood samples were obtained through the abdominal vein. The obtained blood samples were placed in EDTA tubes and centrifuged at 824×g for 30 minutes at 4° C. 50 μl of the supernatant was mixed with 100 μl of methanol, and the resulting mixture was vortexed for 10 minutes. Thereafter, centrifugation was performed again at 10,000×g for 10 minutes. 100 μl of the supernatant was mixed with 900 μl of the mobile phase, and the resulting mixture was filtered through a 0.45 μm syringe filter, and HPLC was performed (HPLC column: C8 column; mobile phase=methanol:acetonitrile:water:acetic acid=55:23.7:19.2:0.68; flow rate: 1 ml/min; injection volume: 20 μl) to measure the blood residual concentration of the drug over time. Detection was performed through UV at 245 nm.

ABCA1 = ABCA1 cell membrane expression in adipocytes treated with LXR inhibitor GSK2033; format: cell-based; conditions: adipocytes treated with GL derivatives
Protocol: It was confirmed through fluorescence images whether the cell membrane expression level of ABCA1 by GL derivatives is reduced in adipocytes by GSK2033, an LXR inhibitor. […] Specifically, 4×10^4 adipocytes were seeded in a 24-well plate and treated with each group (control, GL, PEG, AHP, GL-PEG, and GL-PEG-AHP) for 24 hours on day 14 of adipocyte differentiation. The cells were fixed using 4% PFA. After washing with PBS, the cells were incubated with 10% goat serum and 0.02% Tween-20 for 30 minutes at room temperature. The cells were treated with the ABCA1 antibody (Host: rabbit, 1:300) in PBST at room temperature for two hours. After washing with PBST, the cells were treated with an FITC-labeled secondary antibody (goat-anti-rabbit, 1:500) at room temperature for one hour. After washing with PBS, the cells were treated with DAPI for one minute at room temperature, and then fluorescence images were obtained.

[2] = tested on: obese adipocytes (FFA-treated mature 3T3-L1 cells); test: Anti-hypertrophic effect in obese adipocytes (Oil Red O); format: cell-based
Protocol: To induce obesity in adipocytes at the cell experiment level, cells were treated with saturated fatty acids, and the process of inducing obese adipocytes and performing the experiment at the cell experiment level are shown in FIG. 16. Specifically, a saturated fatty acid (free fatty-acid) (FFA, palmitic acid) was dissolved in a 2% w/v bovine serum albumin (BSA) and 0.5% ethanol DMEM solution to a concentration of 500 μM. After treating with FFA for three days, the cells were washed, subjected to an Oil Red O staining solution process, and then the amount of accumulated fatty acids was measured through the absorbance at 510 nm. The results are shown in FIG. 17, and it was confirmed even through qualitative observation that the size of single fat droplets was very different. […]
The anti-hypertrophy effect of GL derivatives in obesity-induced adipocytes according to the concentration was confirmed at the cell experiment level. […] The amount of fatty acids accumulated inside the cells was measured through the Oil Red O staining process on day 18 of differentiation. […]
It was confirmed whether the anti-hypertrophic effect according to the expected mechanism of GL derivatives differed depending on the fatty acid treatment method. […] On day 18 of differentiation, the amount of fatty acids accumulated inside the cells was measured through the Oil Red O staining process.

[3] = tested on: adipocytes (mature 3T3-L1); test: FACS targeting ability of FITC-labeled peptides in adipocytes; format: cell-based; conditions: 37° C.; for targeting ability (FACS): adipocytes (mature 3T3-L1), 1 μM FITC-labeled peptide, 30 minutes
Protocol: To conduct cell experiments in adipocytes, preadipocytes were differentiated into adipocytes. Specifically, 3T3-L1 preadipocytes were first seeded in a well plate of a size suitable for the experimental purpose, and then cultured to 80% to 90% confluence. Thereafter, the cells were treated with an adipocyte differentiation induction reagent (insulin 10 μg/ml, dexamethasone 0.4 μg/ml, 3-isobutyl-1-methylxanthine 111 μg/ml) for three days. After washing the adipocyte differentiation induction reagent with phosphate-buffered saline (PBS), the cells were treated with Dulbecco's modified eagle medium (DMEM) containing insulin (10 μg/ml) every two days, and differentiation was induced for up to 14 days to generate adipocytes. Thereafter, on day 14 of the adipocyte differentiation induction, the cells were fixed with 4% paraformaldehyde and then treated with the Oil red O staining solution for two hours. In addition, the staining solution accumulated inside the cells was eluted with isopropanol, and a microplate reader was used to verify whether fatty acids were accumulated inside the adipocytes at a wavelength of 510 nm to finally confirm the differentiation.
The targeting effect of the above-described candidate peptides was quantitatively verified in actual adipocytes and preadipocytes. Specifically, differentiated 3T3-L1 preadipocytes were treated at 37° C. for 30 minutes with 1 μM of the final FITC-labeled candidate peptides dissolved in DMEM.
After washing with PBS, cells were detached from the well plate using a trypsin-ethlyenediaminetetraacetic acid (EDTA) (0.5%) solution and centrifuged at 1100 rpm for three minutes to obtain sedimented cells. […]
The finally selected candidate peptide (adipose tissue homing peptide: AHP) (SEQ ID NO: 14: KGRRAKD) was quantitatively compared with another adipose tissue targeting sequence (adipose targeting sequence: ATS) (SEQ ID NO: 22: KGGRAKD) in adipocytes. […]

[4] = tested on: adipocytes (mature 3T3-L1); test: Confocal fluorescence imaging of peptide binding to adipocyte outer membrane; format: cell-based; conditions: 1 μM FITC-labeled peptide, 30 minutes, 37° C.
Protocol: The binding of the candidate peptides to the adipocyte outer membrane was confirmed through fluorescence imaging. Specifically, differentiated 3T3-L1 preadipocytes were treated with 1 μM of the finally selected FITC-labeled candidate peptides in Table 2 dissolved in DMEM for 30 minutes at 37° C. After washing with PBS, cell nuclei were stained using 4′6,-diamidino-2-phenylindole (DAPI). Fluorescence images were taken using a confocal microscope (green fluorescence (FITC)=488 nm, blue fluorescence (DAPI)=405 nm).

[5] = biological target: T1, prohibitin (PHB) on the surface of adipocytes (mature 3T3-L1) (UniProt P67778 2-272, limits assumed); test: FACS of FITC-labeled peptide on mature 3T3-L1 adipocytes, 30 min at 37 °C
T1 construct: whole, on cells
T1 sequence (looked up): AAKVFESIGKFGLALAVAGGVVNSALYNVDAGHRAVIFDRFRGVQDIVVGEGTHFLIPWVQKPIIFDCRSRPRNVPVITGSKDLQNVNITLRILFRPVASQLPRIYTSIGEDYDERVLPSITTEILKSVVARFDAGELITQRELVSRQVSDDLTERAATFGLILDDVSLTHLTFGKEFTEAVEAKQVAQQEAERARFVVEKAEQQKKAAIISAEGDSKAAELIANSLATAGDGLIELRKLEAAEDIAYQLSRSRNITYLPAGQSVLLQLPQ

CC1(C)[C@@H](O[C@H]2O[C@H](C(=O)O)[C@@H](O)[C@H](O)[C@H]2O[C@@H]2O[C@H](C(=O)O)[C@@H](O)[C@H](O)[C@H]2O)CC[C@]2(C)[C@H]3C(=O)C=C4[C@@H]5C[C@@](C)(C(=O)O)CC[C@]5(C)CC[C@@]4(C)[C@]3(C)CC[C@@H]12 [GL, glycyrrhizin]
AUC(0-t) ([1]; C57BL/6J, mouse, plasma, ip): 114 µg·h/mL | half-life ([1]; C57BL/6J, mouse, plasma, ip): 3.3 h | Cmax ([1]; C57BL/6J, mouse, plasma, ip, read-out: Cmax): 43800 ng/mL | Tmax ([1]; C57BL/6J, mouse, plasma, ip, read-out: Tmax (converted)): 0.333 h

Cc1cc(C)c(S(=O)(=O)N(Cc2ccc(-c3cccc(S(C)(=O)=O)c3)cc2)Cc2ccc(C(F)(F)F)o2)c(C)c1 [GSK2033]
expression of ABCA1 in GL derivative groups by GSK2033 treatment (ABCA1): suppressed

GL-PEG-AHP: adipose tissue-targeting glycyrrhizin conjugate: GL amide-bonded to thiol-PEG-amine, disulfide-bonded to AHP (SEQ ID NO: 1: GKGRRAKDC) (also: glycyrrhizin-PEG conjugate, Cys9 disulfide-linked to thiol-PEG-GL)
difference in drug efficacy between pretreatment and co-treatment ([2]; anti-hypertrophic effect, Oil Red O, day 18 of differentiation): greatest efficacy difference | anti-hypertrophic effect ([2]; drug pretreatment, 25, 50, 100, 200, 400 μM, ranking between groups): most effective anti-hypertrophic effect | Cmax [1]: 75200 ng/mL | T1/2 [1]: 3.45 h | Tmax [1]: 0.333 h

7mer 001: adipose tissue homing peptide, SEQ ID NO: 14: KGRRAKD; conjugated form SEQ ID NO: 1: GKGRRAKDC
adipocyte targeting effect compared with ATS (FACS) ([3]; 1 μM FITC-labeled AHP and ATS, 30 min): not inferior in efficacy to ATS | targeting ability (FACS) [3]: most effective targeting ability | adipocyte targeting ability (confocal fluorescence images) [4]: best adipocyte targeting ability

GRRAK: 5mer candidate peptide, SEQ ID NO: 6
targeting ability (FACS) [3]: did not have a significant targeting ability

B1: 5mer candidate peptide GRRAK, FITC-labeled (peptide)
peptide: GRRAK
modifications: also: FITC-labeled, position not given here
notes: Described as a 'working region'; also called working region GRRAK
binding result [5]: no binding (tested: 1 µM)
